{"source": "patent US20180050993A1", "about": "“NOVEL FLUORINATED DERIVATIVES AS EGFR INHIBITORS USEFUL FOR TREATING CANCERS” (Trillium Therapeutics Inc., priority 2015, published 2018)", "assay_in_all_cases": "NCI screening panel, growth %", "type_in_all_cases": "cell-based, human", "key": {"[1]": {"tested_on": "SNB-75", "conditions": "CNS", "description": "(§1) After 24 h, two plates of each cell line are fixed in situ with TCA, to represent a measurement of the cell population for each cell line at the time of drug addition (Tz). Experimental drugs are solubilised in dimethyl sulfoxide at 400-fold the desired final maximum test concentration and stored frozen prior to use. At the time of drug addition, an aliquot of frozen concentrate is thawed and diluted to twice the desired final maximum test concentration with complete medium containing 50 μg/ml gentamicin. Additional four, 10-fold or log serial dilutions are made to provide a total of five drug concentrations plus control. Aliquots of 100 μl of these different drug dilutions are added to the appropriate microtiter wells already containing 100 μl of medium, resulting in the required final drug concentrations.\n(§2) Following drug addition, the plates are incubated for an additional 48 h at 37° C., 5% CO2, 95% air, and 100% relative humidity. For adherent cells, the assay is terminated by the addition of cold TCA (trichloroacetic acid). Cells are fixed in situ by the gentle addition of 50 μl of cold 50% (w/v) TCA (final concentration, 10% TCA) and incubated for 60 minutes at 4° C. The supernatant is discarded, and the plates are washed five times with tap water and air dried. Sulforhodamine B (SRB) solution (100 μl) at 0.4% (w/v) in 1% acetic acid is added to each well, and plates are incubated for 10 minutes at room temperature. After staining, unbound dye is removed by washing five times with 1% acetic acid and the plates are air dried. Bound stain is subsequently solubilised with 10 mM trizma base, and the absorbance is read on an automated plate reader at a wavelength of 515 nm. For suspension cells, the methodology is the same except that the assay is terminated by fixing settled cells at the bottom of the wells by gently adding 50 μl of 80% TCA (final concentration, 16% TCA). Using the seven absorbance measurements [time zero, […], control growth, (C), and test growth in the presence of drug at the five concentration levels (Ti)], the percentage growth is calculated at each of the drug concentration levels. Percentage growth inhibition is calculated as: [(Ti−Tz)/(C−Tz)]×100 for concentrations in which Ti>/=Tz and [(Ti−Tz)/Tz]×100 for concentrations in which Ti<Tz.\n(§3) Three dose response parameters are calculated for each experimental agent. […] The drug concentration resulting in total growth inhibition (TGI) is calculated from Ti=Tz. […] Values are calculated for each of these three parameters if the level of activity is reached. However, if the effect is not reached or is exceeded, the value for that parameter is expressed as greater or less than the maximum or minimum concentration tested."}, "[2]": {"tested_on": "MDA-MB-468", "conditions": "Breast", "description": "as §1, §2, §3"}, "[3]": {"tested_on": "SF-268", "conditions": "CNS", "description": "as §1, §2, §3"}, "[4]": {"tested_on": "LOX IMVI", "conditions": "Melanoma", "description": "as §1, §2, §3"}, "[5]": {"tested_on": "NCI-H522", "conditions": "NSCLC", "description": "as §1, §2, §3"}, "[6]": {"tested_on": "DU-145", "conditions": "Prostate", "description": "as §1, §2, §3"}, "[7]": {"tested_on": "SW-620", "conditions": "Colon", "description": "as §1, §2, §3"}, "[8]": {"tested_on": "HT29", "conditions": "Colon", "description": "as §1, §2, §3"}, "[9]": {"tested_on": "COLO 205", "conditions": "Colon", "description": "as §1, §2, §3"}, "[10]": {"tested_on": "IGROV1", "conditions": "Ovarian", "description": "as §1, §2, §3"}, "[11]": {"tested_on": "NCI-H460", "conditions": "NSCLC", "description": "as §1, §2, §3"}, "[12]": {"tested_on": "HL-60(TB)", "conditions": "Leukemia", "description": "as §1, §2, §3"}, "[13]": {"tested_on": "NCI-H23", "conditions": "NSCLC", "description": "as §1, §2, §3"}, "[14]": {"tested_on": "KM12", "conditions": "Colon", "description": "as §1, §2, §3"}, "[15]": {"tested_on": "U251", "conditions": "CNS", "description": "as §1, §2, §3"}, "[16]": {"tested_on": "PC-3", "conditions": "Prostate", "description": "as §1, §2, §3"}, "[17]": {"tested_on": "CAKI-1", "conditions": "Renal", "description": "as §1, §2, §3"}, "[18]": {"tested_on": "SR", "conditions": "Leukemia", "description": "as §1, §2, §3"}, "[19]": {"tested_on": "SK-MEL-2", "conditions": "Melanoma", "description": "as §1, §2, §3"}, "[20]": {"tested_on": "MDA-MB-435", "conditions": "Melanoma", "description": "as §1, §2, §3"}, "[21]": {"tested_on": "HCT-15", "conditions": "Colon", "description": "as §1, §2, §3"}, "[22]": {"tested_on": "MALME-3M", "conditions": "Melanoma", "description": "as §1, §2, §3"}, "[23]": {"tested_on": "HS 578T", "conditions": "Breast", "description": "as §1, §2, §3"}, "[24]": {"tested_on": "786-0", "conditions": "Renal", "description": "as §1, §2, §3"}, "[25]": {"tested_on": "T-47D", "conditions": "Breast", "description": "as §1, §2, §3"}, "[26]": {"tested_on": "NCI-H226", "conditions": "NSCLC", "description": "as §1, §2, §3"}, "[27]": {"tested_on": "SK-MEL-5", "conditions": "Melanoma", "description": "as §1, §2, §3"}, "[28]": {"tested_on": "UO-31", "conditions": "Renal", "description": "as §1, §2, §3"}, "[29]": {"tested_on": "OVCAR-4", "conditions": "Ovarian", "description": "as §1, §2, §3"}, "[30]": {"tested_on": "SF-295", "conditions": "CNS", "description": "as §1, §2, §3"}, "[31]": {"tested_on": "HCT-116", "conditions": "Colon", "description": "as §1, §2, §3"}, "[32]": {"tested_on": "UACC-257", "conditions": "Melanoma", "description": "as §1, §2, §3"}, "[33]": {"tested_on": "NCI-H322M", "conditions": "NSCLC", "description": "as §1, §2, §3"}, "[34]": {"tested_on": "NCI/ADR-RES", "conditions": "Ovarian", "description": "as §1, §2, §3"}}, "note": "Counter-ions that a name gives are not always drawn."}
{"smiles": "Fc1ccc(Nc2ncnc3cc(OCCOC(F)F)c(OCCOC(F)F)cc23)c(F)c1Cl", "note": "[Compound 2D•HCl, N-(3-chloro-2,4-difluoro-phenyl)-6,7-bis[2-(difluoromethoxy)ethoxy]quinazolin-4-amine]", "values": [{"measurement": "Growth %", "setting": "[1]", "result": 57.99, "unit": "%"}, {"measurement": "Growth %", "setting": "[2]", "result": "−39.62", "unit": "%"}, {"measurement": "Growth %", "setting": "[3]", "result": 70.93, "unit": "%"}, {"measurement": "Growth %", "setting": "[4]", "result": 52.34, "unit": "%"}, {"measurement": "Growth %", "setting": "[5]", "result": 24.07, "unit": "%"}, {"measurement": "Growth %", "setting": "[6]", "result": 35.29, "unit": "%"}, {"measurement": "Growth %", "setting": "[7]", "result": 91.49, "unit": "%"}, {"measurement": "Growth %", "setting": "[8]", "result": 58.66, "unit": "%"}, {"measurement": "Growth %", "setting": "[9]", "result": 77.41, "unit": "%"}, {"measurement": "Growth %", "setting": "[10]", "result": 6.79, "unit": "%"}, {"measurement": "Growth %", "setting": "[11]", "result": 85.74, "unit": "%"}, {"measurement": "Growth %", "setting": "[12]", "result": 80.36, "unit": "%"}, {"measurement": "Growth %", "setting": "[13]", "result": 78.31, "unit": "%"}, {"measurement": "Growth %", "setting": "[14]", "result": 85.84, "unit": "%"}, {"measurement": "Growth %", "setting": "[15]", "result": 72.65, "unit": "%"}, {"measurement": "Growth %", "setting": "[16]", "result": 65.70, "unit": "%"}, {"measurement": "Growth %", "setting": "[17]", "result": 15.86, "unit": "%"}, {"measurement": "Growth %", "setting": "[18]", "result": 75.96, "unit": "%"}, {"measurement": "Growth %", "setting": "[19]", "result": 79.82, "unit": "%"}, {"measurement": "Growth %", "setting": "[20]", "result": 56.24, "unit": "%"}, {"measurement": "Growth %", "setting": "[21]", "result": 55.49, "unit": "%"}, {"measurement": "Growth %", "setting": "[22]", "result": 73.73, "unit": "%"}, {"measurement": "Growth %", "setting": "[23]", "result": 68.48, "unit": "%"}, {"measurement": "Growth %", "setting": "[24]", "result": 60.48, "unit": "%"}, {"measurement": "Growth %", "setting": "[25]", "result": 19.78, "unit": "%"}, {"measurement": "Growth %", "setting": "[26]", "result": 84.65, "unit": "%"}, {"measurement": "Growth %", "setting": "[27]", "result": 74.60, "unit": "%"}, {"measurement": "Growth %", "setting": "[28]", "result": 15.03, "unit": "%"}, {"measurement": "Growth %", "setting": "[29]", "result": 0.00, "unit": "%"}, {"measurement": "Growth %", "setting": "[30]", "result": 76.73, "unit": "%"}, {"measurement": "Growth %", "setting": "[31]", "result": 81.03, "unit": "%"}, {"measurement": "Growth %", "setting": "[32]", "result": 87.43, "unit": "%"}, {"measurement": "Growth %", "setting": "[33]", "result": "−7.70", "unit": "%"}, {"measurement": "Growth %", "setting": "[34]", "result": 54.63, "unit": "%"}]}
